Measurements published in patent EP1903028A1, “Conjugates of glutamate and NMDA receptor channel blockers without excito-toxic effects” (Tschollar,, Werner, priority 2006, dated 2008).
Like-named read-outs stand apart in the source and are kept apart here. Values belong to the molecule of their own block, whether it stands above or below them.

Legend:
aminopeptidase A = biological target: T1, aminopeptidase A (Rattus norvegicus, UniProt P50123); format: in vitro ADME
T1 construct: Hippocampi were removed on ice and coronal slices chopped (0.40 mm thick); from tissue; host or cells: rat hippocampal slices
Procedure: Animals were housed in plastic cages, with free access to standard laboratory food and water, under controlled conditions of lighting, humidity and temperature. Rats were killed by decapitation and brains were quickly removed and immediately transferred in ice-cold artificial cerebrospinal fluid (aCSF) having the following composition (mM):125 NaCl, 3 KCl, 1.2 CaCl2, 1.2 MgSO4, 1 NaH2PO4, 22 NaHCO3 and 10 glucose (aerated with 95% O2 and 5% CO2 at 37°C), pH 7.2-7.4. Hippocampi were removed on ice and coronal slices chopped (0.40 mm thick). Slices were then incubated for 1 h in the presence of a 95% O2and 5% CO2 current (37°C). After washing with fresh aCSF (37°C), slices were transferred to a modified 24 chamber's cell culture well (2 slices per chamber) adapted to accept a constant current of 95% O2 and 5% CO2 all experiment time long. 2 ml aCSF was present in each chamber. Some experiments were performed in a modified aCSF containing 1mM EGTA in the absence of Ca^2+ ions. Drugs were added immediately before slices. After 1h incubation at 37°C, 80 µl aCSF per chamber was drawn in order to evaluate the metabolization time-course. After 3h incubation the experiment ended with a new 80 µl drawing.
Rat hippocampal slices, incubated in physiological conditions (95% 02; 5% CO2 at 37°C, pH 7.2-7.4), metabolized Compound 1 ((S)-4-amino-5-[(4,4-dimethylcyclohexyl)-amino]-5-oxo-pentanoic acid) into Compound 2 (4,4-dimethyl-cyclohexamine) + glutamic acid. After 1h incubation 2,5% ± 0,3% (n=2) Compound 1 was cleaved to yield Compound 2. After 3h incubation 9,0% ± 0,0% (n=2) Compound 1 was cleaved to Compound 2. In the presence of 3 µM amastatin, a selective inhibitor of aminopeptidase A, the cleavage of Compound 1 at 1h and 3h was reduced to 0,5% and 2,0%, respectively (see Figure 2). […] Since aminopeptidase A is a Ca++-dependent enzyme, the cleavage of Compound 1 was then examined under Ca++ -free conditions. In the absence of Ca++ ions, Compound 1 cleavage was inhibited by 76% at 1h and 3h. Aminopeptidase A therefore appears to be the principal enzyme responsible for the cleavage of Compound 1 into Compound 2 plus glutamate.

rats [1] = assay: Radial maze learning test; format: in vivo; settings: for test acquisition in the radial maze: Compound 1: 1-30 mg/kg, versus control animals
Procedure: In another experiment of learning, a radial maze test was used. The radial maze consisted of eight arms radiating from a centre platform. The platform was 40 cm in diameter and the eight arms were 60 cm long, 13 cm wide, with walls 10 cm high. The surface of the maze was elevated 50 cm from the floor. Plastic food cups (4 cm in diameter) were at the end of each arm. One 50 mg micro-pellet was placed in a cup at the beginning of each trial. In the training session, the rat was placed in the centre of the platform facing arm #4 and allowed to freely explore the maze. The animal was left in the maze until it ate all of the 24 pellets placed three per arm.

[2] = system: gerbils subjected to bilateral occlusion of the carotid arteries; assay: Neuro-protection after bilateral occlusion of the carotid arteries in vivo; design: species or system Mongolian gerbils
Procedure: This experiment investigated the neuro-protective effects of Compound 2 in gerbils subjected to bilateral occlusion of the carotid arteries. Mongolian gerbils were anaesthetised with halothane and the right and left common carotid arteries were occluded for a period of 5 min. […] The brains were cut into 10 µm-thick sections in the area of the hippocampus and sections were stained with cresyl violet. Quantitative assessment of area occupied by CA pyramidal neurons was performed using an image analyser (Kontron, KS300). For each animal, measurements were made in a defined field from both hippocampi in 4 coronal sections. The raw data were represented by the mean of 8 measures. The pattern of hippocampal neuro-degeneration following ischemia consisted of a significant decrease of neuronal nuclei area.
Compound 2 at a dose of 16 mg/kg, was 100% protective (see Figure 5).

CA1 pyramidal neurons = assay: NMDA excito-toxicity in hippocampal slices in vitro (area of CA1 pyramidal neurons); format: cell-based, rat; settings: 100 µM NMDA, compound added 15 min prior, 45 min incubation
Procedure: In this experiment, slices were obtained from hippocampi of young (8 day old) rats. After one hour of pre-incubation, NMDA was added to give a final concentration of 100 µM. Either Compound 1 or Compound 2 was added 15 min prior to NMDA and the incubation was carried out for 45 min. Three slices of each sample were collected and fixed with glutaraldehyde (5%). After embedding and freezing, sections (4 µm) were stained with Cresyl violet. Neuronal injury was studied with light microscopy using an imaging analyser (Kontron, KS300). The area occupied by CA1 pyramidal neurons was measured in an analyser-defined field. The pattern of hippocampal neuro-degeneration following NMDA-stimulation consisted of a significant decrease in neuronal nuclei area. […] In contrast, Compound 1 had no effect on NMDA-induced neuronal damage (results not shown).

rats [3] = assay: Scopolamine-induced memory impairment, passive avoidance; format: in vivo; settings: Compound 1: 1 and 10 mg/kg, i.p.; significant (p<0.05) at 10 mg/kg
Procedure: (§1) The cleavage is inhibited by the specific aminopeptidase A inhibitor amastatin. The amount of Compound 2 produced by cleavage of Compound 1 after 3 hours incubation with hippocampal slices is shown. AMA=Amastatin. • FIGS. 3A,B show inhibition of NMDA function by Compound 2. […] Effects of Compound 2 on [^3H]MK-801 binding enhanced by glycine (panel A), glutamate (panel B) and spermine (panel C). […] The 3H-MK-801 concentration was approx. 3 nM in all the experiments. […] Effect of Compound 1 administered i.p. twice a day (30 min before session and at 5.00 p.m.) for 4 days. […] Data are Mean ± s.e.m. of the efficiency indexes grouped in 2-day intervals. […] Values represent the median latency (sec) to enter the shock compartment and interquartile ranges. †P <0.05 vs. scopolamine + (FS), ‡P < 0.01 vs. saline + (FS) (log rank test). […] Values represent the median latency (s) to enter the shock compartment and interquartile ranges. **P < 0.01 vs. vehicle no ECS, †P< 0.05 and ‡P< 0.01 vs. vehicle + ECS (log rank test).
In this experiment, Compound 1 was tested to determine whether it could reverse scopolamine-induced memory impairment in a passive-avoidance paradigm in rats.

in vivo = settings: rat, 30 mg/kg
Procedure: The average (± s.e.m.) plasma and cerebrospinal fluid levels of Compound 1, after a single i.p. or oral administration of 30 mg/kg plotted against time (h), are given in Figure 1. Compound 1 appeared in plasma shortly after both oral and i.p. administration, with a lag-time of 0.12 h. […] Compound 1 crossed the blood-CSF barrier very rapidly, showing lag times of 0.1-0.23 h after oral and i.p. administration, respectively. The maximum concentration of Compound 1 in the CSF was reached 45-60 min after oral and i.p. administration. […] Compound 1 therefore efficiently crosses into the CSF in rats.

rats [4] = assay: Lever-holding operant behaviour (Skinner Box); format: in vivo; settings: 3-10-30 mg/kg i.p., 14 days, p=0.007 versus control
Procedure: In a further test of learning, lever-holding operant behaviour was tested in a standard rodent operant conditioning chamber (Skinner Box). Rats were trained to press the lever for water reward on a continuous reinforcement schedule, for which each lever pressing was rewarded. Daily sessions lasted 30 min and were performed under a green light. Water was restricted to a 30 min post-session period. After two days of stabilisation, rats were subjected to a visual discrimination schedule, in which a green light signalled the availability of the reinforcement for 60 sec, followed by a 30 sec interval with no reinforcement. Daily sessions lasted 30 min and were repeated for 14 days. Data were expressed as the Efficiency Index, which is a ratio of reinforced (correct responses during a session) to non-reinforced responses.

rats [5] = assay: Step-through active avoidance test (acquisition of active avoidance behaviour); format: in vivo; settings: for percent of conditioned avoidance: Compound 1: 3 and 10 mg/kg i.p. twice a day, 5 days, p<0.001
Procedure: as §1
The acquisition of active avoidance behaviour was evaluated during one 40-trial daily session for 5 consecutive days. Compound 1, when given at doses of 3 and 10 mg/kg, increased the percent of conditioned avoidance (see Figure 6A).

[6] = Electroconvulsive shock-induced memory impairment; format: in vivo; settings: Compound 1: 3, 10 and 30 mg/kg; significant at 10 and 30 mg/kg (P <0.05, P <0.01)
Procedure: as §1
In another model of memory impairment, electroconvulsive shock was employed as a memory de-stabilizer. […] For doses of 10 and 30 mg/kg the effect was statistically significant (P <0.05 and P <0.01, respectively) (see Figure 7B).

NMDAR (subtype NR1/NR2A) = biological target: T2, NMDAR (subtype NR1/NR2A) (Homo sapiens, UniProt Q05586+Q12879); assay: Glutamate-evoked currents in NMDA receptor-transfected oocytes; format: cell-based; settings: glutamate 10uM, 100uM glycine, read-out: IC50, inhibition of glutamate-stimulated Ca current
T2 construct: expressed in transfected cells
Procedure: Glutamate stimulates an inward Ca current through the NMDA receptor channel by binding to a specific ligand-binding site at the NR1/NR2 subunit interface and opening the ion channel to the influx of calcium. Glutamate (10uM) was added to oocytes transfected with the NMDAR (subtype NR1/NR2A) in the presence of 100uM glycine and increasing amounts of Compound 2.

NMDA receptor = assay: [3H]MK-801 binding to washed rat cortical membranes enriched for NMDA receptors; settings: binding enhanced by glycine, glutamate or spermine; 10, 100, 1000 µM Compound 2; approx. 3 nM 3H-MK-801
Procedure: as §1
MK-801 (dizocilpine) is an open-channel ligand of the NMDA Ca channel. Washed rat cortical membranes enriched for NMDA receptors were incubated with increasing concentrations of the co-agonists glycine or glutamate, or the positive modulator spermine, and Compound 2. The binding of ^3H MK801 was then measured. […]

T1 sequence (P50123 whole entry): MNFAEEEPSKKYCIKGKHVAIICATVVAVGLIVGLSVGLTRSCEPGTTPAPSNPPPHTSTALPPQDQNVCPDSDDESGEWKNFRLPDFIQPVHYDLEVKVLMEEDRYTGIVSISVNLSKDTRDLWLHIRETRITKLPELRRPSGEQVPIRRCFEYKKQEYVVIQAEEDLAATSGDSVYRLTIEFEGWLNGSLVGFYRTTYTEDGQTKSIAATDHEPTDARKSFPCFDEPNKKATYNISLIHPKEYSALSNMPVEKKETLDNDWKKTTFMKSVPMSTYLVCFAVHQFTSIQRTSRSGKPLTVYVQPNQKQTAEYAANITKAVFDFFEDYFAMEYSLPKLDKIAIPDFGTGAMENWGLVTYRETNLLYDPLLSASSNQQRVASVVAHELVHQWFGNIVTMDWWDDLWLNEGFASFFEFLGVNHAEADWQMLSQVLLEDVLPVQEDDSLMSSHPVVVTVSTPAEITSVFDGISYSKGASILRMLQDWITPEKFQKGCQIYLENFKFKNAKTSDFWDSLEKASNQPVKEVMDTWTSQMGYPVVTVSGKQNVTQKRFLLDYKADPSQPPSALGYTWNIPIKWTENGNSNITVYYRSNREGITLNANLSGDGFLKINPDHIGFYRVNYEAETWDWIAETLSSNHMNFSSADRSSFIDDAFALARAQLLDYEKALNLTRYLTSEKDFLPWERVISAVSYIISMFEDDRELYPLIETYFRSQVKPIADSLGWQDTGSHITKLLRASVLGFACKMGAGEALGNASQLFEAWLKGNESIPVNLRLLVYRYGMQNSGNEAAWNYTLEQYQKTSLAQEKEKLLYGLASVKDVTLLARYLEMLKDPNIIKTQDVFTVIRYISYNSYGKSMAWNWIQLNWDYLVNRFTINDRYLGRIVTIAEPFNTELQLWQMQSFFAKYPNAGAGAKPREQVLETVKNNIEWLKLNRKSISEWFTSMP
T2 sequence (Q12879 23-1464, other chains not shown): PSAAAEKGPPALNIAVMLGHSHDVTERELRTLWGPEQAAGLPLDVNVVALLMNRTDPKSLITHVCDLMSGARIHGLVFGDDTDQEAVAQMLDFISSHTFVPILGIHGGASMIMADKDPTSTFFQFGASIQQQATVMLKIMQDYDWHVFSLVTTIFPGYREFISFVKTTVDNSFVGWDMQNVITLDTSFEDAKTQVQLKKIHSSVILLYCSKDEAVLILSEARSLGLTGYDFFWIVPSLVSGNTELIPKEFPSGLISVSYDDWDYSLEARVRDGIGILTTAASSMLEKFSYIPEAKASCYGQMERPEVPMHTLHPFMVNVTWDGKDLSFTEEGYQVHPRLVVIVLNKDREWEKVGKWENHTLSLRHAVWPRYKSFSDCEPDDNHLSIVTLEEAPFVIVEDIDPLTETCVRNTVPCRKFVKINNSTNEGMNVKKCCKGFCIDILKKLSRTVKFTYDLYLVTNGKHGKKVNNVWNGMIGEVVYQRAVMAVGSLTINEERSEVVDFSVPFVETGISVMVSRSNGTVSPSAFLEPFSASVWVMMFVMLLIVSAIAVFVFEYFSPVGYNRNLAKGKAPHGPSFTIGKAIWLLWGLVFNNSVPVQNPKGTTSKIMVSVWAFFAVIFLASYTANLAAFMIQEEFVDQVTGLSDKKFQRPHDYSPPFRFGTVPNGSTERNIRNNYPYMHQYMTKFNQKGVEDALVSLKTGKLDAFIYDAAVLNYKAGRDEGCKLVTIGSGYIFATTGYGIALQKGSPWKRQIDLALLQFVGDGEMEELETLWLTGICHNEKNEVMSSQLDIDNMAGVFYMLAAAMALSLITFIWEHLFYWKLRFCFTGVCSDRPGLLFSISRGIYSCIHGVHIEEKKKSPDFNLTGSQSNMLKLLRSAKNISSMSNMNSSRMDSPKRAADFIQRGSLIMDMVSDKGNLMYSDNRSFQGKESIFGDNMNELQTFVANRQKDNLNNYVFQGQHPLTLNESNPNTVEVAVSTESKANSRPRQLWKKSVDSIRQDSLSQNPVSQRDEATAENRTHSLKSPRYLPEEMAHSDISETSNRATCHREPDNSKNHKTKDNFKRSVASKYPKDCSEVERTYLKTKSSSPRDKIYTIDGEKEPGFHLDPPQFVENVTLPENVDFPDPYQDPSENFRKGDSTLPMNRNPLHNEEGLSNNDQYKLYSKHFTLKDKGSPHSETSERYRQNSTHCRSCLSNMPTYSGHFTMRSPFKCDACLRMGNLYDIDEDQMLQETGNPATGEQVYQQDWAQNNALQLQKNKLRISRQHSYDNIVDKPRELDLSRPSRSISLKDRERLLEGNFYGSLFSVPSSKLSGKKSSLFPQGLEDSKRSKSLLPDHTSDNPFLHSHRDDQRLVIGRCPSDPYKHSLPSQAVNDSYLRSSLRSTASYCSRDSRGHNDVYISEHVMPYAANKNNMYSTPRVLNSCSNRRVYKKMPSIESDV

IC50 (aminopeptidase A; rat hippocampal slices, read-out: IC50, inhibition of cleavage of Compound 1): 0.3 µM
SMILES: CC(C)C[C@@H](N)[C@H](O)C(=O)N[C@H](C(=O)N[C@H](C(=O)N[C@@H](CC(=O)O)C(=O)O)C(C)C)C(C)C [Amastatin, reference compound]

SMILES: CC1(C)CCC(NC(=O)[C@@H](N)CCC(=O)O)CC1 [Compound 1, (S)-4-amino-5-(4,4-dimethylcyclohexylamino)-5-oxopentanoic acid]
Compound 1 cleavage inhibited (aminopeptidase A; in the absence of Ca++ ions, at 1h and 3h): 76%
Compound 1 cleaved to yield Compound 2 (aminopeptidase A; rat, 1 h, pH 7.2): 2,5% ± 0,3%
Compound 1 cleaved to Compound 2 (aminopeptidase A; rat, 3 h, pH 7.2): 9,0% ± 0,0%
number of sessions to reach acquisition criterion (rats [1]; 10 and 30 mg/kg (P <0.05, P <0.01, respectively)): decreased
test acquisition in the radial maze (rats [1]): faster test acquisition
mortality ([2]; 50mg/kg, ischemia alone 50% 7-day mortality): zero
effect on NMDA-induced neuronal damage (CA1 pyramidal neurons): no effect
retention latency, reversal of scopolamine-induced memory impairment (rats [3]): dose-dependently increased latency
Tmax (in vivo): 1 h
plasma lag-time (in vivo): 0.12 h
time to maximum concentration in the CSF (in vivo): 45 to 60 min
Kp (in vivo; ip): 0.48
lag time for crossing the blood-CSF barrier (in vivo; ip): 0.23 h
Kp (in vivo; po): 0.62
lag time for crossing the blood-CSF barrier (in vivo; po): 0.1 h
percent of reinforced responses (Efficiency Index) (rats [4]): increased in a dose-dependent manner
percent of conditioned avoidance (rats [5]): increased
uncoordinated escape responses or spontaneous inter-trial responses (rats [5]; rat, in vivo): did not affect
step-down latency after electroconvulsive shock [6]: dose-dependently increased step-down latency

SMILES: CC1(C)CCC(N)CC1 [Compound 2, 4,4-dimethyl-cyclohexylamine]
test acquisition in the radial maze (rats [1]): without effect
IC50 (NMDAR (subtype NR1/NR2A); 100 millivolts): 30 µM
IC50 (NMDAR (subtype NR1/NR2A); -60 millivolts): 117 µM
inhibition of MK-801 binding (NMDA receptor): inhibited MK-801 binding in a dose-dependent fashion
protective (7-day mortality) ([2]; 16 mg/kg, 1 hour prior to ischemia, ischemia alone 50% mortality): 100%
protection from neuronal degeneration and death ([2]; administered 1 hour prior to ischemia): dose-dependently protected
IC50 (CA1 pyramidal neurons; Rattus norvegicus, Pyramidal neuron, slices of 8 day old rats, read-out: IC50, prevention of NMDA-induced damage): 189 ± 42.4 µM
retention latency, reversal of scopolamine-induced memory impairment (rats [3]): unable to reverse
percent of conditioned avoidance (rats [5]): without activity
step-down latency after electroconvulsive shock [6]: without effect
